# Laboratory results from ChEMBL document CHEMBL1201862, “PubChem BioAssay data set” (2004).
# Activity calls are given as the source filed them. Rule as the data show it: actives have a measured IC50 and inactives only a lower limit.
# Columns and labels:
# [1] = rise of 4N DNA cells, HeLa – IC50, dose response (AID 1117351); format: functional, cell-based
# [2] = target: T1, Sentrin-specific protease 7 (Homo sapiens, UniProt Q9BQF6); format: functional;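 also: Luminescence-based dose-response confirmation of ultra-high-throughput screening hits, measuring inhibition of SENP7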
# T1 sequence (Q9BQF6 whole entry): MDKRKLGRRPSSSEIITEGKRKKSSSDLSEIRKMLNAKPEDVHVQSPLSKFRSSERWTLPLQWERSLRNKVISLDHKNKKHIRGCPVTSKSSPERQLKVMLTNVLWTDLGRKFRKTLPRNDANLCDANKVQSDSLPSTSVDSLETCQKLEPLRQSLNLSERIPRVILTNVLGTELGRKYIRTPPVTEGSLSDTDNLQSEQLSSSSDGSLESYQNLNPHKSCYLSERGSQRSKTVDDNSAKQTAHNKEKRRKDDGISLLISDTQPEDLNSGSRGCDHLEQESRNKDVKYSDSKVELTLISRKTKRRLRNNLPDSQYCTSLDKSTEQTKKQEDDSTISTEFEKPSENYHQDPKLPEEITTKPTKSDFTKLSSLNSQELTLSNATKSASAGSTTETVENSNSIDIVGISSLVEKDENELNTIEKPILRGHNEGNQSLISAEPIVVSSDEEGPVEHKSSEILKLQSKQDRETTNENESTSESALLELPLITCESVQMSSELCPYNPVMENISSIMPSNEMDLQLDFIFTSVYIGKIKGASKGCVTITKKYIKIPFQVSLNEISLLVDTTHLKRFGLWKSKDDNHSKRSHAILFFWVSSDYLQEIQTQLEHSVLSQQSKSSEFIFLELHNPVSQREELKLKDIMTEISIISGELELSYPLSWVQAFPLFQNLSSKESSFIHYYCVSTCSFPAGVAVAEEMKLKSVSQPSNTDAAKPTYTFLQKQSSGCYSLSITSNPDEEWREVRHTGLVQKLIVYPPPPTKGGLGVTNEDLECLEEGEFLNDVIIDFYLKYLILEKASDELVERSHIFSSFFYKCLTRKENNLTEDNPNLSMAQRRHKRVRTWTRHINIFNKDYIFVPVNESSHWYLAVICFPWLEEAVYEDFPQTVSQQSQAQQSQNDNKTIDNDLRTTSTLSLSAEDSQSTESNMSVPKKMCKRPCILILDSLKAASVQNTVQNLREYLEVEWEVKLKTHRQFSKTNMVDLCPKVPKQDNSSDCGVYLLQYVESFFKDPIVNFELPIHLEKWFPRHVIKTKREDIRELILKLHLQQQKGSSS
Structure (SMILES),IC50 [1],IC50 [2]
Oc1c(Cl)cc(Cl)c(Cl)c1Cc1c(O)c(Cl)cc(Cl)c1Cl [HEXACHLOROPHENE],> 10 µM (inactive),
N#Cc1c(N2CCCCC2)nc(N)c2c(N)nc(SCC(=O)O)cc12,,11.8 µM (active)
